Measurements: patent publication US11491232B2, “Lactuloside compounds and preparation and use thereof” (Fruithy Holdings Limited, priority 2017, dated 2022)

Columns and labels:
[1] = Test on stability in mediums in vitro (buffer solutions with different pH, simulated intestinal fluid, simulated gastric fluid); assay type: physicochemical
Experimental: At 37° C., Compound 17 was incubated in different mediums (buffer solutions with different pH, a simulated intestinal fluid containing pancreatin, and simulated gastric fluid containing pepsin).
(§1) Other typical example compounds were tested for stability according to the above method, and the test results are shown in Table 8 below.

colon flora = experiment: Stability in the presence of colon flora (content in colon of rat); assay type: in vitro ADME, SD rat; conditions: male, rat, pH 6.8
Experimental: A phosphate buffer solution with a pH of 7.0 was formulated, and then CO2 was introduced to the solution to adjust the pH to 6.8. Then, the content in colon of a male SD rat (body weight: 180-220 g) was placed in a water bath at 37° C., and added into the phosphate buffer solution with a pH of 6.8 as prepared above under the protection of N2 to a concentration of 20% (w/v). The buffer solution was kept in an oxygen-free environment. Then, the test Compound 17 was added to the buffer solution, and the solution was stirred uniformly.
Supernatant was analyzed with HPLC, where the amount of each ingredient was calculated by normalization.
Note: in the above table, “T14.148 (%)” represents the percentage of peak area of the material with a retention time of 14.148 min “T14.713 (%)” represents the percentage of peak area of the material with a retention time of 14.713 min. “T16.392 (%)” represents the percentage of peak area of the material with a retention time of 16.392 min. “T22.624 (%)” represents the percentage of peak area of the material with a retention time of 22.624 min.
as §1

SMILES: C[C@]12C=CC(=O)C=C1CC[C@@H]1[C@@H]2C(=O)C[C@@]2(C)[C@H]1CC[C@]2(O)C(=O)COC1(CO)O[C@H](CO)[C@@H](O[C@@H]2O[C@H](CO)[C@H](O)[C@H](O)[C@H]2O)[C@@H]1O (stereo partly drawn) [Compound 17, 17-hydroxyl-21-{[4-O-(β-D-galactopyranosyl)-D-fructofuranosyl]oxy}pregna-1,4-diene-3,11,20-trione]
- Compound 17 (%) ([1]; Acetate buffer solution, pH 4.0, 37° C., 0 h): 99.6%
- Compound 17 (%) ([1]; Acetate buffer solution, pH 4.0, 37° C., 0.5 h): 99.6%
- Compound 17 (%) ([1]; Acetate buffer solution, pH 4.0, 37° C., 1 h): 99.5%
- Compound 17 (%) ([1]; Acetate buffer solution, pH 4.0, 37° C., 1.5 h): 99.4%
- Compound 17 (%) ([1]; Acetate buffer solution, pH 4.0, 37° C., 4 h): 99.2%
- Compound 17 (%) ([1]; Acetate buffer solution, pH 4.0, 37° C., 20 h): 97.1%
- Compound 17 (%) ([1]; Acetate buffer solution, pH 4.0, 37° C., 24 h): 96.5%
- Compound 17 (%) ([1]; Hydrochloric acid solution, pH 1.2, 37° C., 0 h): 96.0%
- Compound 17 (%) ([1]; Hydrochloric acid solution, pH 1.2, 37° C., 0.5 h): 47.1%
- Compound 17 (%) ([1]; Hydrochloric acid solution, pH 1.2, 37° C., 1 h): 22.1%
- Compound 17 (%) ([1]; Hydrochloric acid solution, pH 1.2, 37° C., 2 h): 4.5%
- Compound 17 (%) ([1]; Hydrochloric acid solution, pH 1.2, 37° C., 3 h): 1.0%
- Compound 17 (%) ([1]; Hydrochloric acid solution, pH 2.0, 37° C., 0 h): 99.7%
- Compound 17 (%) ([1]; Hydrochloric acid solution, pH 2.0, 37° C., 0.5 h): 93.3%
- Compound 17 (%) ([1]; Hydrochloric acid solution, pH 2.0, 37° C., 1 h): 86.5%
- Compound 17 (%) ([1]; Hydrochloric acid solution, pH 2.0, 37° C., 1.5 h): 80.1%
- Compound 17 (%) ([1]; Hydrochloric acid solution, pH 2.0, 37° C., 2 h): 74.6%
- Compound 17 (%) ([1]; Hydrochloric acid solution, pH 2.0, 37° C., 3 h): 64.5%
- Compound 17 (%) ([1]; Hydrochloric acid solution, pH 2.0, 37° C., 4 h): 55.3%
- Compound 17 (%) ([1]; Hydrochloric acid solution, pH 2.0, 37° C., 8 h): 30.8%
- Compound 17 (%) ([1]; Hydrochloric acid solution, pH 2.0, 37° C., 24 h): 2.5%
- Compound 17 (%) ([1]; Phosphate buffer solution, pH 5.8, 37° C., 0 h): 99.5%
- Compound 17 (%) ([1]; Phosphate buffer solution, pH 5.8, 37° C., 1 h): 97.3%
- Compound 17 (%) ([1]; Phosphate buffer solution, pH 5.8, 37° C., 6 h): 99.4%
- Compound 17 (%) ([1]; Phosphate buffer solution, pH 5.8, 37° C., 8 h): 99.5%
- Compound 17 (%) ([1]; Phosphate buffer solution, pH 5.8, 37° C., 33 h): 99.3%
- Compound 17 (%) ([1]; Phosphate buffer solution, pH 6.8, 37° C., 0 h): 97.3%
- Compound 17 (%) ([1]; Phosphate buffer solution, pH 6.8, 37° C., 1 h): 97.5%
- Compound 17 (%) ([1]; Phosphate buffer solution, pH 6.8, 37° C., 6 h): 99.0%
- Compound 17 (%) ([1]; Phosphate buffer solution, pH 6.8, 37° C., 8 h): 99.0%
- Compound 17 (%) ([1]; Phosphate buffer solution, pH 6.8, 37° C., 33 h): 97.6%
- Compound 17 (%) ([1]; Phosphate buffer solution, pH 7.8, 37° C., 0 h): 97.5%
- Compound 17 (%) ([1]; Phosphate buffer solution, pH 7.8, 37° C., 1 h): 97.6%
- Compound 17 (%) ([1]; Phosphate buffer solution, pH 7.8, 37° C., 6 h): 97.6%
- Compound 17 (%) ([1]; Phosphate buffer solution, pH 7.8, 37° C., 8 h): 97.6%
- Compound 17 (%) ([1]; Phosphate buffer solution, pH 7.8, 37° C., 33 h): 97.7%
- Compound 17 (%) ([1]; Simulated gastric fluid (containing pepsin) (pH 2.0), 37° C., 0 h): 97.0%
- Compound 17 (%) ([1]; Simulated gastric fluid (containing pepsin) (pH 2.0), 37° C., 0.5 h): 53.6%
- Compound 17 (%) ([1]; Simulated gastric fluid (containing pepsin) (pH 2.0), 37° C., 1 h): 28.9%
- Compound 17 (%) ([1]; Simulated gastric fluid (containing pepsin) (pH 2.0), 37° C., 1.5 h): 15.6%
- Compound 17 (%) ([1]; Simulated gastric fluid (containing pepsin) (pH 2.0), 37° C., 2 h): 7.0%
- Compound 17 (%) ([1]; Simulated gastric fluid (containing pepsin) (pH 2.0), 37° C., 3 h): 2.1%
- Compound 17 (%) ([1]; Simulated intestinal fluid (containing pancreatin) (pH 6.8), 37° C., 0 h): 97.6%
- Compound 17 (%) ([1]; Simulated intestinal fluid (containing pancreatin) (pH 6.8), 37° C., 1 h): 97.4%
- Compound 17 (%) ([1]; Simulated intestinal fluid (containing pancreatin) (pH 6.8), 37° C., 6 h): 97.7%
- Compound 17 (%) ([1]; Simulated intestinal fluid (containing pancreatin) (pH 6.8), 37° C., 8 h): 97.7%
- Compound 17 (%) ([1]; Simulated intestinal fluid (containing pancreatin) (pH 6.8), 37° C., 33 h): 96.2%
- Compound 17 (%) ([1]; Water (pH 6.2), 37° C., 0 h): 97.6%
- Compound 17 (%) ([1]; Water (pH 6.2), 37° C., 1 h): 97.6%
- Compound 17 (%) ([1]; Water (pH 6.2), 37° C., 6 h): 97.6%
- Compound 17 (%) ([1]; Water (pH 6.2), 37° C., 8 h): 98.2%
- Compound 17 (%) ([1]; Water (pH 6.2), 37° C., 33 h): 98.0%
- percentage of remaining Compound 17 ([1]; pH 2.0 or higher, within 1.5 hours, 37° C.): greater than 80%
- Compound 17 (%) (colon flora; SD, 0 h): 84.8%
- T14.148 (%) (percentage of peak area of the material with a retention time of 14.148 min) (colon flora; SD, 0 h): 13.5%
- T22.624 (%) (percentage of peak area of the material with a retention time of 22.624 min) (colon flora; SD, 0 h): 0.0%
- Compound 17 (%) (colon flora; SD, 1 h): 49.0%
- T14.148 (%) (percentage of peak area of the material with a retention time of 14.148 min) (colon flora; SD, 1 h): 42.5%
- T22.624 (%) (percentage of peak area of the material with a retention time of 22.624 min) (colon flora; SD, 1 h): 0.0%
- Compound 17 (%) (colon flora; SD, 2 h): 25.3%
- T22.624 (%) (percentage of peak area of the material with a retention time of 22.624 min) (colon flora; SD, 2 h): 0.0%
- T22.624 (%) (percentage of peak area of the material with a retention time of 22.624 min) (colon flora; SD, 3 h): 0.0%
- Compound 17 (%) (colon flora; SD, 20 h): 0.0%
- T22.624 (%) (percentage of peak area of the material with a retention time of 22.624 min) (colon flora; SD, 20 h): 7.8%
- Prednisone (%) (released from Compound 17) (colon flora; Sprague-Dawley (SD), 0 h): 1.7%
- T14.713 (%) (percentage of peak area of the material with a retention time of 14.713 min) (colon flora; Sprague-Dawley (SD), 0 h): 0.0%
- T16.392 (%) (percentage of peak area of the material with a retention time of 16.392 min) (colon flora; Sprague-Dawley (SD), 0 h): 0.0%
- Prednisone (%) (released from Compound 17) (colon flora; Sprague-Dawley (SD), 1 h): 8.1%
- T14.713 (%) (percentage of peak area of the material with a retention time of 14.713 min) (colon flora; Sprague-Dawley (SD), 1 h): 0.0%
- T16.392 (%) (percentage of peak area of the material with a retention time of 16.392 min) (colon flora; Sprague-Dawley (SD), 1 h): 0.0%
- Prednisone (%) (released from Compound 17) (colon flora; Sprague-Dawley (SD), 2 h): 14.7%
- T14.148 (%) (percentage of peak area of the material with a retention time of 14.148 min) (colon flora; Sprague-Dawley (SD), 2 h): 59.1%
- T14.713 (%) (percentage of peak area of the material with a retention time of 14.713 min) (colon flora; Sprague-Dawley (SD), 2 h): 0.0%
- T16.392 (%) (percentage of peak area of the material with a retention time of 16.392 min) (colon flora; Sprague-Dawley (SD), 2 h): 0.0%
- Prednisone (%) (released from Compound 17) (colon flora; Sprague-Dawley (SD), 3 h): 21.2%
- T14.148 (%) (percentage of peak area of the material with a retention time of 14.148 min) (colon flora; Sprague-Dawley (SD), 3 h): 65.5%
- T14.713 (%) (percentage of peak area of the material with a retention time of 14.713 min) (colon flora; Sprague-Dawley (SD), 3 h): 0.0%
- T16.392 (%) (percentage of peak area of the material with a retention time of 16.392 min) (colon flora; Sprague-Dawley (SD), 3 h): 0.0%
- Prednisone (%) (released from Compound 17) (colon flora; Sprague-Dawley (SD), 20 h): 39.7%
- T14.148 (%) (percentage of peak area of the material with a retention time of 14.148 min) (colon flora; Sprague-Dawley (SD), 20 h): 12.7%
- T14.713 (%) (percentage of peak area of the material with a retention time of 14.713 min) (colon flora; Sprague-Dawley (SD), 20 h): 19.2%
- T16.392 (%) (percentage of peak area of the material with a retention time of 16.392 min) (colon flora; Sprague-Dawley (SD), 20 h): 6.4%
- Compound 17 (%) (colon flora; Sprague-Dawley, 3 h): 11.3%
- percentage of the compound degraded (colon flora; Sprague-Dawley, 3 h): about 90%
